From PMC7927014, “Novel Small Molecule Hsp90/Cdc37 Interface Inhibitors Indirectly Target K-Ras-Signaling” (Cancers, 2021)

How the values were obtained:
[1] = design: method as in PMID 24927996; conditions: mice, 900 mg/kg; cited from earlier work
[2] = test system: Gal3; experiment: Western blotting of galectin-3; format: cell-based; conditions: Western blot, 24 h; K-RasG12V-transfected HEK and MDA-MB-231 cells
Protocol: The cells were trypsinized, washed with PBS, and lysed in RIPA buffer (cat no. 89900, ThermoFisher Scientific) containing protease and phosphatase inhibitors (cat. no. A32959, ThermoFisher Scientific) and 1 mM phenylmethylsulfonyl fluoride (PMSF). The cells in the RIPA buffer were placed on ice for 20 min, and were then sonicated in ice cold water for 5 min. The lysates were centrifuged at 4 °C, and their protein was quantified using a BCA kit (cat. no. 23225, ThermoFisher Scientific). Equal amounts of protein were separated by 10% SDS-PAGE, and were then transferred onto a nitrocellulose membrane (cat. no. NBA 083C001EA, Protran) using a wet transfer system (Bio-Rad) or semidry Transferblot Turbo Transfer System (Bio-Rad). After the transfer, the membranes were blocked for 30 min in 5% skimmed milk dissolved in 1× TBST, and then incubated with 1:2000 primary antibodies in 5% BSA in TBST at 4 °C overnight. […]
The next day, the membranes were washed three times in TBST for 10 min, and then incubated with secondary antibodies (1:5000) diluted in 5% skimmed milk in TBST for 1 h at RT. […] The protein bands were detected with a ChemiDoc MP instrument (Bio-Rad) after treatment with an ECL reagent (cat. no. 170-5061, BioRad). […]

[3] = test system: H-RasG12V nanoclustering; experiment: H-RasG12V nanoclustering-FRET (FLIM-FRET) in HEK cells; format: cell-based; conditions: 24 h, conglobatin A 2 μM, salinomycin 1.3 μM, CAY10585 10 μM
Protocol: In total, 80,000 HEK cells were seeded in 12-well plates containing sterilized 16-mm coverslips and 1 mL medium. The next day, the cells were transfected using jetPRIME or FuGENE HD transfection reagent. For the donor fluorophore-only samples, the cells were transfected with 500 ng mGFP-tagged RasG12V plasmid. For the nanoclustering-FRET pair samples, the cells were transfected with both the donor and acceptor constructs, i.e., pmGFP- and pmCherry- RasG12V at a plasmid ratio of 1:3, respectively, and a total of 800 ng plasmids. The next day, the cells were treated with either 0.1% DMSO vehicle control or the indicated concentrations of compounds diluted in DMEM or RPMI medium for 24 h. For the gene silencing studies, the cells were transfected with the indicated amounts of siRNAs, together with the FRET pair constructs. The plasmids and siRNA were diluted in the same jetPRIME transfection buffer, followed by the addition of jetPRIME. After 48 h of transfection, the cells were fixed in 4% paraformaldehyde for 10 to 15 min, before being mounted onto slides with Mowiol 4–88 (cat. no. 81381, Sigma-Aldrich). The lifetime of the mGFP donor fluorophore was measured using a fluorescence microscope (Zeiss AXIO Observer D1) equipped with a fluorescence lifetime imaging attachment (Lambert Instruments), as described previously in detail. The apparent FRET efficiency (Eapp) was calculated as Eapp = (1 − τDA/τD) × 100%, with the measured fluorescence lifetimes τDA of the FRET sample and the τD of the donor-only sample.

[4] = test system: HIF-1α; experiment: Western blotting of HIF-1α in nuclear extracts; format: cell-based; conditions: Western blot of nuclear extracts, 24 h; K-RasG12V-transfected HEK and MDA-MB-231 cells; conglobatin A 5 or 10 μM, 17-AAG 2 μM
Protocol: The cells in the RIPA buffer were placed on ice for 20 min, and were then sonicated in ice cold water for 5 min. […] Equal amounts of protein were separated by 10% SDS-PAGE, and were then transferred onto a nitrocellulose membrane (cat. no. NBA 083C001EA, Protran) using a wet transfer system (Bio-Rad) or semidry Transferblot Turbo Transfer System (Bio-Rad). After the transfer, the membranes were blocked for 30 min in 5% skimmed milk dissolved in 1× TBST, and then incubated with 1:2000 primary antibodies in 5% BSA in TBST at 4 °C overnight.
The next day, the membranes were washed three times in TBST for 10 min, and then incubated with secondary antibodies (1:5000) diluted in 5% skimmed milk in TBST for 1 h at RT. […] All of the antigens and molecular weights in kDa are labelled next to the blots on the figures. Uncropped Western blot data are attached as Figure S6.

[5] = test system: MIA PaCa-2 cells; experiment: 2D cell proliferation (alamarBlue); format: cell-based; conditions: Homo sapiens; MIA PaCa-2 (pancreas), 72 h
Protocol: (§1) Per well, 500–700 cells were seeded in 96-well flat bottom culture plates in 100 µL. After 24 h, the cells were treated with 0.1% DMSO vehicle control or test compounds diluted in a medium using a 1:2 dilution-series, starting at 100 µM. The plates were further incubated for 72 h. The cell viability was measured after the addition of 10% alamarBlue reagent per well (cat. no. DAL1100, Thermo Fisher Scientific). The fluorescence intensity (excitation 560 nm and emission 590 nm) was measured after 4 h by the use of a H1 Hybrid Multi-Mode reader.

[6] = test system: HEK293 EBNA cells; experiment: 2D cell proliferation (alamarBlue); format: cell-based; conditions: Homo sapiens, 72 h
Protocol: as §1

[7] = test system: MCF 10A cells; experiment: 2D cell proliferation (alamarBlue); format: cell-based; conditions: Homo sapiens, 72 h
Protocol: as §1

[8] = test system: HCC-44 cells; experiment: 2D cell proliferation (alamarBlue); format: cell-based; conditions: Homo sapiens, HCC44; HCC-44 (lung, G12C), 72 h
Protocol: as §1

[9] = test system: SK-BR-3 cells; experiment: 2D cell proliferation (alamarBlue); format: cell-based; conditions: Homo sapiens; SK-BR-3 (breast, n.a.), 72 h
Protocol: as §1

| SMILES | acute toxicity [1] | Gal3 levels [2] | H-RasG12V nanoclustering-FRET [3] | nuclear levels of HIF-1α [4] | IC50 [5] | IC50 [6] | IC50 [7] | IC50 [8] | IC50 [9] |
| --- | --- | --- | --- | --- | --- | --- | --- | --- | --- |
| C/C1=C\[C@H](C)C[C@H](C)[C@H](Cc2cnco2)OC(=O)/C(C)=C/[C@H](C)C[C@H](C)[C@H](Cc2cnco2)OC1=O [conglobatin A, reference compound] | well tolerated | dose-dependently reduced | not H-RasG12V-nanoclustering | decreased the nuclear levels of HIF-1α |  |  |  |  |  |
| CCOc1ccc(C(=O)c2ccc(O)c(O)c2O)cc1 [×1540, 2,3,4-TRIHYDROXY-4'-ETHOXYBENZOPHENONE] |  |  |  |  | 23 ± 2 µM | 89 µM | 172 µM | 49 ± 6 µM | 36 ± 3 µM |
| N=C(CSS(=O)(=O)O)NCC12CC3CC(CC(C3)C1)C2 [×6506, [({N-[(adamantan-1-yl)methyl]carbamimidoyl}methyl)sulfanyl]sulfonic acid] |  |  |  |  | 25 ± 2 µM | 47 µM | 64 µM | 28 ± 4 µM | 36 ± 4 µM |
